In patent US20100137275A1 (IPSEN PHARMA S.A.S., priority 2007, published 2010):

Experiments:
[1] = molecular target: T1, purified recombinant Cdc25-C enzyme (MBP-Cdc25C protein) (Homo sapiens, UniProt P30307); experiment: Phosphatase activity of the purified recombinant Cdc25C enzyme (OMFP dephosphorylation, fluorescence); type: biochemical; settings: OMFP 500 μM, 4 hours at 30° C.
T1 construct: made in house
T1 sequence (P30307 1-473): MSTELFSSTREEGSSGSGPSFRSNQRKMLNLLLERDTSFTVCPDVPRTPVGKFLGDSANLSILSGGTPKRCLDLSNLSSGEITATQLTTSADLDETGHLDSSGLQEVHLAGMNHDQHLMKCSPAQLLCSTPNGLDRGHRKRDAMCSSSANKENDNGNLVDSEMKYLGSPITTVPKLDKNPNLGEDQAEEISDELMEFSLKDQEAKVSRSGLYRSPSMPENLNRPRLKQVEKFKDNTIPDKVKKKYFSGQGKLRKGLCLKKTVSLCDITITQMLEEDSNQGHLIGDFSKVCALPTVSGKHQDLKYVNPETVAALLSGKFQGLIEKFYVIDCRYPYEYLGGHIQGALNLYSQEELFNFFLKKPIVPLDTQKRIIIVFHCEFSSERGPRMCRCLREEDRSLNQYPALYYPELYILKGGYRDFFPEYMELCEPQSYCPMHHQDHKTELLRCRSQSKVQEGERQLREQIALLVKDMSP
Experimental: The phosphatase activity of the MBP-Cdc25C protein is evaluated through its dephosphorylation of 3-O-methylfluorescein-phosphate (OMFP) to form 3-O-methylfluorescein (OMF), determining the fluorescence of the reaction product at 475 nm. This assay can be used to identify inhibitors of the recombinant Cdc25 enzyme. The preparation of the MBP-Cdc25C fusion protein is described in patent application PCT WO 01/44467.
The reaction is performed in 384-well plates in a final volume of 50 μl. The MBP-Cdc25C protein (prepared as described hereinabove) is stored in the following elution buffer: 20 mM Tris-HCl pH 7.4; 250 mM NaCl; 1 mM EDTA; 1 mM dithiothreitol (DTT); 10 mM maltose. It is diluted to a concentration of 60 μM in the following reaction buffer: 50 mM Tris-HCl pH 8.2; 50 mM NaCl; 1 mM DTT; 20% glycerol. The background noise is determined using with the buffer without addition of the enzyme. The products are tested at decreasing concentrations from 40 μM. The reaction is initiated by the addition of a solution OMFP to a final concentration of 500 μM (prepared immediately before use from a 12.5 mM stock solution in 100% DMSO (Sigma #M2629)). After 4 hours at 30° C. in a disposable 384-well plate, the fluorescence measured at OD 475 nm is read on a Victor^2 plate reader (EGG-Wallac). The concentration that produces 50% inhibition of the enzyme reaction is calculated from three independent experiments. Only the values that fall within the linear part of the sigmoid curve are used for the linear regression analysis.

[2] = test system: DU145 (human prostate cancer cells); experiment: Anti-proliferative activity on DU-145 cell line (WST1 colorimetric test); type: cell-based; settings: DU-145, 96 h, 96 hours treatment, read-out: IC50 on the proliferation of the DU-145 cell line
Experimental: (§1) By way of an example, the effect of treating two human cell lines Mia-Paca2 and DU145 with the compounds of the examples described hereinbefore will be studied. The cell lines DU145 (human prostate cancer cells) and Mia-PaCa2 (human pancreas cancer cells) were obtained from the American Tissue Culture Collection (Rockville, Md., USA). A 96-well plate was inoculated on day 0 with cells placed in 80 μl of Dulbecco's modified Eagle's medium (Gibco-Brl, Cergy-Pontoise, France) with 10% heat-inactivated foetal calf serum (Gibco-Brl, Cergy-Pontoise, France), 50000 units/1 of penicillin and 50 mg/l of streptomycin (Gibco-Brl, Cergy-Pontoise, France), and 2 mM of glutamine (Gibco-Brl, Cergy-Pontoise, France). The cells were treated on day 1 with increasing concentrations of each test compound up to 10 μM for 96 hours. At the end of this period, cell proliferation is quantified by means of a colorimetric test based on cleavage of the tetrazolium salt WST1 by the mitochondrial dehydrogenases in the viable cells, resulting in formation of formazan (Boehringer Mannheim, Meylan, France). These tests are performed in duplicate with 8 determinations per concentration tested. For each compound to be tested, the values within the linear part of the sigmoid curve were subjected to linear regression analysis and used to estimate the IC50 inhibitory concentration. The products are solubilised in dimethylsulfoxide (DMSO) at a concentration of 10^−2 M and used in culture with a final DMSO concentration of 0.1%.

[3] = test system: Mia-PaCa2 (human pancreas cancer cells); experiment: Anti-proliferative activity on Mia-Paca2 cell line (WST1 colorimetric test); type: cell-based; settings: MIA PaCa-2, 96 h, 96 hours treatment, read-out: IC50 on proliferation of the Mia-Paca2 cell line
Experimental: as §1

| IC50 [1] | IC50 [2] | melting point | IC50 [3] | SMILES |
| --- | --- | --- | --- | --- |
| ≤ 5 µM | ≤ 5 µM | 79 to 81 °C | – | CN(CCNC(=S)Nc1ccc(Oc2ccccc2)cc1)CCNc1cc(N2CCCC2)nc(N2CCCC2)n1 [Example 36, N-{2-[{2-[(2,6-dipyrrolidin-1-ylpyrimidin-4-yl)amino]ethyl}(methyl)amino]ethyl}-N′-(4-phenoxyphenyl)thiourea] |
| – | – | 142 to 144 °C | ≤ 5 µM | CCNc1cc(NCCN(C)CCNC(=S)Nc2ccc(Cl)cc2)nc(NCC)n1 [Example 79, N-{2-[(2-{[2,6-bis(ethylamino)pyrimidin-4-yl]amino}ethyl)(methyl)amino]ethyl}-N′-(4-chlorophenyl)thiourea] |
| ≤ 5 µM | ≤ 5 µM | 104 to 106 °C | – | CN(CCNC(=S)Nc1ccc(Oc2ccccc2)nc1)CCNc1cc(N2CCCC2)nc(N2CCCC2)n1 [Example 30, N-{2-[{2-[(2,6-dipyrrolidin-1-ylpyrimidin-4-yl)amino]ethyl}(methyl)amino]ethyl}-N′-(6-phenoxypyridin-3-yl)thiourea] |
| ≤ 5 µM | ≤ 5 µM | – | ≤ 5 µM | CN(CCCNC(=O)Nc1ccc(Cl)c(C(F)(F)F)c1)CCCNc1cc(N2CCCC2)nc(N2CCCC2)n1 [Example 21, N-[4-chloro-3-(trifluoromethyl)phenyl]-N′-{3-[{3-[(2,6-dipyrrolidin-1-ylpyrimidin-4-yl)amino]propyl}(methyl)amino]propyl}urea] |
| ≤ 5 µM | ≤ 5 µM | 104 to 106 °C | – | CN(CCNC(=S)Nc1ccc(-c2cnco2)cc1)CCNc1cc(N2CCCC2)nc(N2CCCC2)n1 [Example 33, N-{2-[{2-[(2,6-dipyrrolidin-1-ylpyrimidin-4-yl)amino]ethyl}(methyl)amino]ethyl}-N′-[4-(1,3-oxazol-5-yl)phenyl]thiourea] |
| ≤ 1 µM | ≤ 5 µM | 192 to 194 °C | – | CN(CCNC(=S)Nc1ccc(C(C)(C)C)cc1)CCNc1cc(N2CCCC2)nc(N2CCCC2)n1 [Example 44, N-(4-tert-butylphenyl)-N′-{2-[{2-[(2,6-dipyrrolidin-1-ylpyrimidin-4-yl)amino]ethyl}(methyl)amino]ethyl}thiourea] |
| ≤ 5 µM | – | 139 to 140 °C | ≤ 5 µM | CN(CCNC(=O)c1cccc2c1-c1ccccc1C2=O)CCNc1cc(N2CCCC2)nc(N2CCCC2)n1 [Example 85, N-{2-[{2-[(2,6-dipyrrolidin-1-ylpyrimidin-4-yl)amino]ethyl}(methyl)amino]ethyl}-9-oxo-9H-fluorene-4-carboxamide] |
| – | ≤ 5 µM | 127 to 129 °C | ≤ 5 µM | CN(CCNC(=S)Nc1ccc(N(C)C)cc1)CCNc1cc(N2CCCC2)nc(N2CCCC2)n1 [Example 76, N-[4-(dimethylamino)phenyl]-N′-{2-[{2-[(2,6-dipyrrolidin-1-ylpyrimidin-4-yl)amino]ethyl}(methyl)amino]ethyl}thiourea] |
| ≤ 5 µM | – | 110 to 112 °C | ≤ 5 µM | CC(Oc1ccccc1)C(=O)NCCN(C)CCNc1cc(N2CCCC2)nc(N2CCCC2)n1 (stereo not shown) [Example 84, N-{2-[{2-[(2,6-dipyrrolidin-1-ylpyrimidin-4-yl)amino]ethyl}(methyl)amino]ethyl}-2-phenoxypropanamide] |
| ≤ 5 µM | – | 171 to 173 °C | ≤ 5 µM | CN(CCNC(=O)C1CCN(c2nccc(C(F)(F)F)n2)CC1)CCNc1cc(N2CCCC2)nc(N2CCCC2)n1 [Example 86, N-{2-[{2-[(2,6-dipyrrolidin-1-ylpyrimidin-4-yl)amino]ethyl}(methyl)amino]ethyl}-1-[4-(trifluoromethyl)pyrimidin-2-yl]piperidine-4-carboxamide] |
| ≤ 5 µM | ≤ 5 µM | 118 to 120 °C | – | CN(CCNC(=S)Nc1ccc(OC(F)(F)F)cc1)CCNc1cc(N2CCCC2)nc(N2CCCC2)n1 [Example 23, N-{2-[{2-[(2,6-dipyrrolidin-1-ylpyrimidin-4-yl)amino]ethyl}(methyl)amino]ethyl}-N′-[4-(trifluoromethoxy)phenyl]thiourea] |
| ≤ 1 µM | ≤ 5 µM | 67 to 69 °C | – | CSc1ccc(NC(=S)NCCN(C)CCNc2cc(N3CCCC3)nc(N3CCCC3)n2)cc1 [Example 51, N-{2-[{2-[(2,6-dipyrrolidin-1-ylpyrimidin-4-yl)amino]ethyl}(methyl)amino]ethyl}-N′-[4-(methylthio)phenyl]thiourea] |
| ≤ 1 µM | – | 144 to 145 °C | ≤ 5 µM | CN(CCNc1cc(N2CCCC2)nc(N2CCCC2)n1)CCNS(=O)(=O)c1ccc([N+](=O)[O-])cc1 [Example 87, N-{2-[{2-[(2,6-dipyrrolidin-1-ylpyrimidin-4-yl)amino]ethyl}(methyl)amino]ethyl}-4-nitrobenzenesulfonamide] |
| ≤ 5 µM | ≤ 5 µM | – | ≤ 5 µM | CN(CCNC(=S)NCc1ccco1)CCNc1cc(N2CCCC2)nc(N2CCCC2)n1 [Example 29, N-{2-[{2-[(2,6-dipyrrolidin-1-ylpyrimidin-4-yl)amino]ethyl}(methyl)amino]ethyl}-N′-(2-furylmethyl)thiourea] |
| ≤ 1 µM | – | 107 to 109 °C | ≤ 5 µM | CN(CCNC(=S)Nc1cccnc1)CCNc1cc(N2CCCC2)nc(N2CCCC2)n1 [Example 26, N-{2-[{2-[(2,6-dipyrrolidin-1-ylpyrimidin-4-yl)amino]ethyl}(methyl)amino]ethyl}-N′-pyridin-3-ylthiourea] |
| ≤ 5 µM | ≤ 5 µM | 87 to 89 °C | – | CN(CCNC(=S)Nc1cccc2ccccc12)CCNc1cc(N2CCCC2)nc(N2CCCC2)n1 [Example 37, N-{2-[{2-[(2,6-dipyrrolidin-1-ylpyrimidin-4-yl)amino]ethyl}(methyl)amino]ethyl}-N′-1-naphthylthiourea] |
| ≤ 5 µM | – | – | ≤ 5 µM | CN(C)CCN(C)c1cc(NCCN(C)CCNC(=S)Nc2ccc(Cl)cc2)nc(N(C)CCN(C)C)n1 [Example 64, N-{2-[[2-({2,6-bis[[2-(dimethylamino)ethyl](methyl)amino]pyrimidin-4-yl}amino)ethyl](methyl)amino]ethyl}-N′-(4-chlorophenyl)thiourea] |
| ≤ 1 µM | ≤ 5 µM | 133 to 135 °C | – | CN(CCNC(=O)Nc1cccs1)CCNc1cc(N2CCCC2)nc(N2CCCC2)n1 [Example 10, N-{2-[{2-[(2,6-dipyrrolidin-1-ylpyrimidin-4-yl)amino]ethyl}(methyl)amino]ethyl}-N′-2-thienylurea] |
| ≤ 5 µM | ≤ 5 µM | 127 to 129 °C | – | COc1ccc(NC(=S)NCCN(C)CCNc2cc(N3CCCC3)nc(N3CCCC3)n2)cc1 [Example 35, N-{2-[{2-[(2,6-dipyrrolidin-1-ylpyrimidin-4-yl)amino]ethyl}(methyl)amino]ethyl}-N′-(4-methoxyphenyl)thiourea] |
